Experimental data taken from PMC3818834 (2013).

Assays:
[1] = system: CA-23B (DNA, aptamer) TTTTGGGTGGGTGGGTTGGGGTA; assay: fluorescence titration; conditions: 138 mM NaCl, 2.7 mM KCl, 2.5 mM MgCl2; 10 mM PBS pH 7.4, 0.05% TWEEN 20, 25 °C; compound 1 µM; nucleic acid up to 10 µM
[2] = system: CA-16 (DNA, aptamer) GGGTGGGTGGGTTGGG; assay: fluorescence titration; conditions: 138 mM NaCl, 2.7 mM KCl, 2.5 mM MgCl2, 10 mM PBS pH 7.4, 0.05% TWEEN 20, 25 °C, compound 1 µM
[3] = system: CA-20 (DNA, aptamer) TGGGTGGGTGGGTTGGGGTA; assay: fluorescence titration; conditions: 138 mM NaCl, 2.7 mM KCl, 2.5 mM MgCl2; 10 mM PBS pH 7.4, 0.05% TWEEN 20, 25 °C; compound 1 µM; nucleic acid up to 10 µM
[4] = system: CA-19 (DNA, aptamer) GGGTGGGTGGGTTGGGGTA; assay: fluorescence titration; conditions: 138 mM NaCl, 2.7 mM KCl, 2.5 mM MgCl2; 10 mM PBS pH 7.4, 0.05% TWEEN 20, 25 °C; compound 1 µM; nucleic acid up to 10 µM
[5] = system: CA-70 (DNA, aptamer) GGTCAGCACGCTCCGGACTTGGGTGGGTGGGTTGGGGTACGGTGCGTAATGTGTCGCTGAGCCTGCCAAC; assay: fluorescence titration; conditions: 138 mM NaCl, 2.7 mM KCl, 2.5 mM MgCl2, 10 mM PBS pH 7.4, 0.05% TWEEN 20, 25 °C
[6] = system: CA-16 (DNA, aptamer) GGGTGGGTGGGTTGGG; assay: CD melting at 265 nm; conditions: 138 mM NaCl, 2.7 mM KCl, 2.5 mM MgCl2; 10 mM PBS pH 7.4; compound 10 µM, nucleic acid 10 µM; Tm without compound 73 °C
[7] = system: CA-18B (DNA, aptamer) GGGTGGGTGGGTTGGGGT; assay: fluorescence titration; conditions: 138 mM NaCl, 2.7 mM KCl, 2.5 mM MgCl2; 10 mM PBS pH 7.4, 0.05% TWEEN 20, 25 °C; compound 1 µM; nucleic acid up to 10 µM
[8] = system: CA-23A (DNA, aptamer) ACTTGGGTGGGTGGGTTGGGGTA; assay: fluorescence titration; conditions: 138 mM NaCl, 2.7 mM KCl, 2.5 mM MgCl2; 10 mM PBS pH 7.4, 0.05% TWEEN 20, 25 °C; compound 1 µM; 1:1 assumed
[9] = system: CA-16 (DNA, aptamer) GGGTGGGTGGGTTGGG; assay: fluorescence polarization; conditions: 138 mM NaCl, 2.7 mM KCl, 2.5 mM MgCl2; 10 mM PBS pH 7.4, 0.05% TWEEN 20, 25 °C; compound 1 µM
[10] = system: CA-40 (DNA, aptamer) ACGCTCCGGACTTGGGTGGGTGGGTTGGGGTACGGTGCGT; assay: fluorescence titration; conditions: 138 mM NaCl, 2.7 mM KCl, 2.5 mM MgCl2; 10 mM PBS pH 7.4, 0.05% TWEEN 20, 25 °C; compound 1 µM; 1:1 assumed
[11] = system: CA-19 (DNA, aptamer) GGGTGGGTGGGTTGGGGTA; assay: fluorescence polarization; conditions: 138 mM NaCl, 2.7 mM KCl, 2.5 mM MgCl2; 10 mM PBS pH 7.4, 0.05% TWEEN 20, 25 °C; compound 1 µM; nucleic acid up to 10 µM
[12] = system: CA-17 (DNA, aptamer) GGGTGGGTGGGTTGGGG; assay: fluorescence titration; conditions: 138 mM NaCl, 2.7 mM KCl, 2.5 mM MgCl2, 10 mM PBS pH 7.4, 0.05% TWEEN 20, 25 °C, compound 1 µM
[13] = system: CA-18A (DNA, aptamer) TGGGTGGGTGGGTTGGGG; assay: fluorescence titration; conditions: 138 mM NaCl, 2.7 mM KCl, 2.5 mM MgCl2, 10 mM PBS pH 7.4, 0.05% TWEEN 20, 25 °C, compound 1 µM

SMILES	Kd [3]	Kd [4]	Kd ([5]; compound 1 µM, 1:1 assumed)	Kd [7]	Kd [10]	Kd ([5]; nucleic acid up to 10 µM)	other results
CC[C@@]1(O)C(=O)OCc2c1cc1n(c2=O)Cc2c-1nc1ccccc1c2CN1CCC(NC(=O)COCC(=O)NCCOCCOCCOCCOCCOCCOCCOCCOCCOCCOCCOCCN)CC1	> 10 µM	> 10 µM	1.8 ± 0.3 µM	> 10 µM	3.0 ± 0.4 µM	–	Kd [1]: > 10 µM; Kd [2]: 1.8 ± 0.3 µM; binding [6]: yes; Kd [8]: 2.1 ± 0.9 µM; binding [9]: yes; binding [11]: no; Kd ([12]; 1:1 assumed): 8.1 ± 0.9 µM; Kd ([13]; 1:1 assumed): 6.0 ± 0.8 µM
O=C(O)Cc1ccc2[nH]c3ccccc3c(=O)c2c1	–	–	–	–	–	> 10 µM	–
CC[C@@]1(O)C(=O)OCc2c1cc1n(c2=O)Cc2cc3ccccc3nc2-1	> 10 µM	> 10 µM	4.6 ± 0.3 µM	> 10 µM	5.6 ± 0.5 µM	–	Kd ([2]; 1:1 assumed): 4.2 ± 0.4 µM; Kd ([12]; nucleic acid up to 10 µM): > 10 µM; Kd ([13]; nucleic acid up to 10 µM): > 10 µM
O=c1c2ccccc2[nH]c2ccccc12	–	–	–	–	–	> 10 µM	–
CC[C@@]1(O)C(=O)OCc2c1cc1n(c2=O)Cc2c-1nc1ccccc1c2CN1CCC(N)CC1	> 10 µM	> 10 µM	3.6 ± 0.2 µM	> 10 µM	3.0 ± 0.2 µM	–	Kd ([2]; 1:1 assumed): 2.7 ± 0.3 µM; Kd ([12]; 1:1 assumed): 8.9 ± 1.0 µM; Kd ([13]; 1:1 assumed): 3.4 ± 0.3 µM
Cc1cc2nc3c(=O)[nH]c(=O)nc-3n(C[C@H](O)[C@H](O)[C@H](O)COP(=O)(O)O)c2cc1C	–	–	–	–	–	–	Kd [5]: 8.5 µM
O=C1OC2(c3ccc(O)cc3Oc3cc(O)ccc32)c2ccccc21	–	–	–	–	–	> 10 µM	–
